Literature values, collected in patent US20090026122A1, “BIOCOMPATIBLE SOLID-PHASE MICROEXTRACTION COATINGS AND METHODS FOR THEIR PREPARATION” (Janusz, priority 2002, published 2009).

Test system: plasma proteins
Details: previously published values

## CN(C)C(=O)C(CCN1CCC(O)(c2ccc(Cl)cc2)CC1)(c1ccccc1)c1ccccc1 [Loperamide, loperamide]
  Plasma Protein Binding % Literature Values (range): 95-97%
